Reference: patent US8466113B2, “4-isopropylphenyl glucitol compounds as SGLT1 inhibitors” (Taisho Pharmaceutical Co., Ltd., priority 2009, dated 2013)

Tests used:
[1] = tested on: streptozotocin (STZ)-induced diabetic rats; assay: Oral glucose tolerance test (OGTT) in streptozotocin-induced diabetic model rats; assay type: in vivo, rat; conditions: oral 1 mg/kg, glucose 2 g/kg, versus vehicle control
Description: (1) Preparation of Diabetic Model Rats
SD/IGS rats at 7 weeks of age (male, Charles River Laboratories Japan Inc.) were fasted for about 16 hours and then injected with 50 mg/kg streptozotocin (STZ) via the tail vein under ether anesthesia to prepare diabetic model rats. Similarly, another group of SD/IGS rats at 7 weeks of age was injected with 1.25 mmol/L citric acid in physiological saline (1 mL/kg) via the tail vein under ether anesthesia to prepare normal control rats. At one week after injection of STZ or 1.25 mmol/L citric acid in physiological saline, the rats were provided for an oral glucose tolerance test.
(2) Oral Glucose Tolerance Test (OGTT)
After the diabetic model rats were fasted for about 16 hours, drug groups were each orally administered with a drug (1 mg/kg) dissolved in a 0.5% aqueous carboxymethylcellulose sodium (CMC) solution, while the control group was orally administered with a 0.5% aqueous CMC solution alone. The drugs used were compounds 10, 11 and 33 disclosed in WO07/136116, as well as compounds 1-2, 5-2, 6-2, 13-2 and 15-2 according to the present invention. Immediately after drug administration, a glucose solution (2 g/kg) was orally administered and blood was collected at 6 points in total: before drug administration (0 hour) and 0.25, 0.5, 1, 1.5 and 2 hours after oral administration.
Blood was collected from the tail vein of each rat without anesthesia using a heparin-coated blood collection tube, and centrifuged to separate plasma. Plasma glucose concentrations were quantified by measurement with a Glucose CII-Test Wako (Wako Pure Chemical Industries, Ltd., Japan). To determine the intensity of hypoglycemic effect, the blood glucose level before drug administration was subtracted from each blood glucose level measured until one hour after oral administration in each drug group, and the resulting values were analyzed by the trapezoidal method to calculate an increment in the area under the curve for glucose (ΔAUC), which was expressed as a decrease relative to ΔAUC of the control group.

human SGLT2 = target: T1, human SGLT2 (Homo sapiens, UniProt P31639); assay: Inhibition test for sodium-dependent sugar uptake in CHO-K1 cells stably expressing human SGLT2, Method B; assay type: cell-based; conditions: uptake 37° C., 60 minutes, read-out: IC50 for hSGLT2 Method B
T1 construct: expressed in transfected cells; host or cells: CHO-K1
T1 sequence (P31639 1-672): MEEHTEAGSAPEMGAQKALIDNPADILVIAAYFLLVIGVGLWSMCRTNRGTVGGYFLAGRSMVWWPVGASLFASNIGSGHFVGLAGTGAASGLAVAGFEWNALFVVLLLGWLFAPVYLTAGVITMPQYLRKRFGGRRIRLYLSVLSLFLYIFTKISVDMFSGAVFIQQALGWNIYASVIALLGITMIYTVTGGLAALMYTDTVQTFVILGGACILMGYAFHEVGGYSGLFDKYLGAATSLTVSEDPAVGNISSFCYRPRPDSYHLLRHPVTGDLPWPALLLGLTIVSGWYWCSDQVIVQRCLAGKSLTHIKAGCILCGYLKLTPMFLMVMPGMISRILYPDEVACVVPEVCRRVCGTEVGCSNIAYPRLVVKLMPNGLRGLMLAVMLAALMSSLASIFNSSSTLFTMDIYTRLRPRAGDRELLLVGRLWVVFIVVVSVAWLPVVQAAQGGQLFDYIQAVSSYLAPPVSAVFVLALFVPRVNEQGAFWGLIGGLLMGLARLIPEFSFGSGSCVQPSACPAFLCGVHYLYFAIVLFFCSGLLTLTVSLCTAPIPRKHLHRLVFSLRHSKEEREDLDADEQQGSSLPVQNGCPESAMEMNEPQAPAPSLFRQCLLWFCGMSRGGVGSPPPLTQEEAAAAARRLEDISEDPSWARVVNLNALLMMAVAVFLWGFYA
Description: (2) Creation of CHO-K1 Cells Stably Expressing Human SGLT2
Method B: A plasmid vector expressing human SGLT2 protein was transfected into CHO-K1 cells using lipofectamine LTX (Invitrogen). The cells were cultured in the presence of 1000 μg/mL geneticin to select resistant strains, followed by screening in the system shown below using sugar uptake capacity as an indicator to obtain SGLT2-expressing cells.
(3) Inhibition Test for Sodium-Dependent Sugar Uptake in Stably Expressing Cells
The stably expressing cells prepared above were used in the following test.
Pretreatment buffer (140 mM choline chloride, 2 mM KCl, 1 mM CaCl2, 1 mM MgCl2, 10 mM HEPES/5 mM Tris, pH 7.4) was added in a volume of 200 μL to the cells stably expressing SGLT1 or 2 mL for Method A and 200 μL for Method B to the cells stably expressing SGLT2, followed by incubation for 20 minutes. The pretreatment buffer was removed and replaced by uptake buffer containing a test compound (1 mM methyl α-D-glucopyranoside (containing [^14C]methyl α-D-glucopyranoside), 140 mM NaCl, 2 mM KCl, 1 mM CaCl2, 1 mM MgCl2, 10 mM HEPES/5 mM Tris, pH 7.4) in a volume of 75 μL for SGLT1 and SGLT2 in Method B or 200 μL for SGLT2 in Method A. Uptake reaction was performed at 37° C. for 30 minutes (SGLT1) or 60 minutes (SGLT2). After the reaction, the cells were washed twice with washing buffer (10 mM methyl α-D-glucopyranoside, 140 mM choline chloride, 2 mM KCl, 1 mM CaCl2, 1 mM MgCl2, 10 mM HEPES/5 mM Tris, pH 7.4) in a volume of 200 μL for SGLT1 and SGLT2 in Method B or 2 mL for SGLT2 in Method A, and then dissolved in a 0.25 M NaOH solution (75 μL for SGLT1 and SGLT2 in Method B or 400 μL for SGLT2 in Method A). A liquid scintillator (Perkin Elmer) was added and mixed well with each sample, followed by measurement of radioactivity using a β-ray analyzer. For the control group, uptake buffer containing no test compound was prepared. Moreover, another uptake buffer containing choline chloride instead of NaCl was also prepared for basal uptake.
For determination of IC50 values, test compounds prepared at 6 appropriate concentrations were used and their concentrations required for 50% inhibition of the amount of sugar uptake (IC50 values) were calculated relative to the amount of sugar uptake in the control group (100%).

[2] = Kidney concentrations after repeated oral administration for 3 days; assay type: in vivo, rat; conditions: 3 mg/kg once a day for 3 days, male Sprague-Dawley rats, 48 hours after final administration
Description: (2) Kidney Concentrations of Inventive Compounds After Repeated Oral Administration for 3 Days
SD/IGS rats at 7 weeks of age (male, non-fasting, Charles River Laboratories Japan Inc.) were orally administered once a day for 3 consecutive days with compound 1-2, 5-2, 6-2, 13-2 or 15-2 according to the present invention (3 mg/kg) prepared in a 0.5% aqueous CMC solution. At 48 hours after the final drug administration, the rats were exsanguinated via the postcaval vein under isoflurane anesthesia, and their kidneys were excised after they were confirmed to be euthanized. After the tissue surface was washed with physiological saline, each tissue was measured for its weight and homogenized in 4 volumes of purified water under ice cooling. The drug concentration in each homogenate was determined in the same manner as shown in Test Example 3(1) by LC-MS/MS using compound 11 as an internal standard substance.

With `Cc1cc(/C=C/C(C)(C)C(=O)NC(C)(C)C(=O)NCCN(C)C)ccc1Cc1cc([C@@H]2O[C@H](CO)[C@@H](O)[C@H](O)[C@H]2O)c(O)cc1C(C)C` [Example 1-2] as the molecule, how does the “STZ rats OGTT % inhibition ΔAUC0-1 h (mg/dl) @1 mg/kg/po” value (“STZ rats OGTT % inhibition ΔAUC0-1 h” below) [1] read?
Its value is 74%.

What about the IC50 (human SGLT2) of the same molecule?
Its IC50 is 74 nM.

What about the “Concentration of compounds in kidney after 3 days continuous oral administration, After 2 days” value (from here on “Concentration of compounds in kidney”) [2] of the same molecule?
The value was “BLQ^# (BLQ means below lower limit of quantification(5 ng/g))”.

For `Cc1cc(/C=C/C(C)(C)C(=O)NC(C)(C)C(=O)N2CCC(N(C)C)CC2)ccc1Cc1cc([C@@H]2O[C@H](CO)[C@@H](O)[C@H](O)[C@H]2O)c(O)cc1C(C)C` [Example 5-2], which “STZ rats OGTT % inhibition ΔAUC0-1 h” value [1] is on record?
The value was 66%.

And the IC50 (human SGLT2)?
The IC50 was 30 nM.

And the “Concentration of compounds in kidney” value [2]?
Its value is “BLQ (BLQ means below lower limit of quantification(5 ng/g))”.

With `Cc1cc(/C=C/C(C)(C)C(=O)NC(C)(C)C(=O)NCC(C)(C)N)ccc1Cc1cc([C@@H]2O[C@H](CO)[C@@H](O)[C@H](O)[C@H]2O)c(O)cc1C(C)C` [Example 6-2] as the molecule, how does the “STZ rats OGTT % inhibition ΔAUC0-1 h” value [1] read?
Its value is 64%.

And the IC50 (human SGLT2)?
The IC50 was 64 nM.

And the “Concentration of compounds in kidney” value [2]?
The value was “BLQ (BLQ means below lower limit of quantification(5 ng/g))”.

Which “STZ rats OGTT % inhibition ΔAUC0-1 h” value [1] does the source give for `COc1cc(C(C)C)c(Cc2ccc(/C=C/C(C)(C)C(=O)NC(C)(C)C(=O)NCC(C)(C)N)cc2C)cc1[C@@H]1O[C@H](CO)[C@@H](O)[C@H](O)[C@H]1O` [Example 13-2] here?
Its value is 54%.

And the IC50 (human SGLT2)?
The IC50 was 322 nM.

And the “Concentration of compounds in kidney” value [2]?
The value was “BLQ (BLQ means below lower limit of quantification(5 ng/g))”.

Which “STZ rats OGTT % inhibition ΔAUC0-1 h” value [1] does the source give for `COc1cc(C(C)C)c(Cc2ccc(/C=C/C(C)(C)C(=O)NC(C)(C)C(=O)NCCN(C)C)cc2)cc1[C@@H]1O[C@H](CO)[C@@H](O)[C@H](O)[C@H]1O` [Example 15-2] here?
The value was 62%.

What about the IC50 (human SGLT2) of the same molecule?
Its IC50 is 20 nM.

And the “Concentration of compounds in kidney” value [2]?
The value was “BLQ (BLQ means below lower limit of quantification(5 ng/g))”.
